In assay [1] the target is T1, CCK-B receptors (CHO-CCK) (Homo sapiens, UniProt P32239).
T1 construct: expressed in transfected cells; host or cells: CHO (CHO-CCK model cells)
T1 sequence (P32239 1-447): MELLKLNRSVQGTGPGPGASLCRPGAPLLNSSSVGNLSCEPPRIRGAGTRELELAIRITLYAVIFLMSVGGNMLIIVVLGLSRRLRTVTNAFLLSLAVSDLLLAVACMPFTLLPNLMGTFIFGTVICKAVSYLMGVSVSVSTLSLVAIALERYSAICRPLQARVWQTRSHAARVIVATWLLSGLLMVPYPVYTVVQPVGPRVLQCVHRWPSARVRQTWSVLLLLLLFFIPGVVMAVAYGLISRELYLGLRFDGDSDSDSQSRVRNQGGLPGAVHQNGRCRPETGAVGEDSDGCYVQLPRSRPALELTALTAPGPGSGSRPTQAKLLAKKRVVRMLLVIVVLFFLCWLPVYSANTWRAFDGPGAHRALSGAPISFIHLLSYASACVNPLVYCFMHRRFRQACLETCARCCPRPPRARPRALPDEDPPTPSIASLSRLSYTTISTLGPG
As to the kind of experiment: Calcium flux (Fluo-8) antagonist test on CHO-CCK model cells in presence of CCK8. The class given is cell-based. (Calcium flux is commonly read through the fluorescence of an indicator in the cells.)

The target in assay [2] is T1, CCK-B receptors (CHO-CCK). Description: Calcium flux (Fluo-8) agonist test on CHO-CCK model cells. Particulars: for EC50: CHO-CCK cells; for Agonistic Activity (%) at 10 μM: compound at 10 μM, percentage of signal of 20 nM CCK8 alone. Format: cell-based. The procedure, abridged: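 Agonist-mode Fluo-8 calcium flux read on CHO-CCK cells after dye loading 30 min at 37 °C plus 30 min at room temperature.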

Where [3] appears, read: Fluo-8 calcium flux, bound in μM.
The mark [4] stands for this setting: compound together with 10 nM CCK8.
The mark [5] stands for this setting: compound alone, 100% = 20 nM CCK8.
Setting [6] is: Fluo-8 calcium flux, 100% control = 20 nM CCK8.
[7] abbreviates: in presence of 10 nM CCK8, bound in μM.

Twelve compounds from US20240415918A1, “Polypeptide and its use as a CCK receptor agonist/antagonist” (Centre for Regenerative Medicine & Health, Hong Kong …, priority 2021, published 2024) can be followed below.

Where a SMILES comes first, the peptide text is derived from it. [ ]: non-standard residue; d: D form. sY = N[C@@H](Cc1ccc(OS(=O)(=O)O)cc1)C(=O)O; Phe(3-Br) = N[C@@H](Cc1cccc(Br)c1)C(=O)O; dAoc(2) = CCCCCC[C@@H](N)C(=O)O; Aoc(2) = CCCCCC[C@H](N)C(=O)O; Ahp(2) = CCCCC[C@H](N)C(=O)O; NMeNle = CCCC[C@H](NC)C(=O)O; Nle = CCCC[C@H](N)C(=O)O

As a reminder, the EC50 is the concentration giving half of the maximal effect. `CSCC[C@H](NC(=O)[C@H](Cc1ccc(OS(=O)(=O)O)cc1)NC(C)=O)C(=O)NCC(=O)N[C@@H](Cc1c[nH]c2ccccc12)C(N)=O` [HT-209, Ac-Tyr(SO3H)-Met-Gly-Trp-NH2] (Ac-[sY]MGW-NH2): the EC50 was 2.15 µM in assay [1] (in presence of 10 nM CCK8) and over 10 µM in assay [2] (setting [3]).

With `CSCC[C@H](NC(=O)[C@H](N)Cc1c[nH]c2ccccc12)C(=O)N[C@@H](CC(=O)O)C(=O)N[C@@H](Cc1cc(F)cc(F)c1)C(N)=O` [HT-39, D-Trp-Met-Asp-Phe(3,5-DiF)-NH2], the EC50 in assay [1] (setting [4]) is 0.631 µM; in assay [2] (setting [5]) it was 0.0442 µM. Moreover, the “Agonistic Activity (%) at 10 μM” value in assay [2] was 119.04%.

For `CSCC[C@H](NC(=O)[C@H](N)Cc1c[nH]c2ccccc12)C(=O)N[C@@H](CC(=O)O)C(=O)N[C@@H](Cc1cccc(F)c1)C(N)=O` [HT-27, D-Trp-Met-Asp-Phe(3-F)-NH2], the concentration for a half-maximal effect (EC50) in assay [1] (setting [4]) was determined as 1.34 µM; in assay [2] (setting [5]), 0.155 µM. Also, the “Agonistic Activity (%) at 10 μM” value in assay [2] came to 79.08%.

On to `CCCC[C@H](NC(=O)[C@@H](Cc1c(C)[nH]c2ccccc12)NC(C)=O)C(=O)N[C@@H](CCC(=O)O)C(=O)N[C@@H](Cc1cccc(Br)c1)C(N)=O` [HT-244, Ac-(2-Me-Trp)-Nle-Glu-Phe(3-Br)-NH2], for which the EC50 in assay [1] (in presence of 10 nM CCK8) is 1.36 µM; in assay [2] (setting [6]), 7.32 µM.

As for `CCCC[C@@H](C(=O)N[C@@H](CC(=O)O)C(=O)N[C@@H](Cc1cccc(Br)c1)C(N)=O)N(C)C(=O)[C@@H](Cc1c[nH]c2ccccc12)NC(C)=O` [HT-179, Ac-D-Trp-(N-Me-Nle)-Asp-Phe(3-Br)-NH2] (Ac-[dW][NMeNle]D[Phe(3-Br)]-NH2), the EC50 in assay [1] (compound together with 10 nM CCK8, bound in μM) is over 10 µM; in assay [2] (setting [5]) it was 1.63 µM.

On to `CS(=O)(=O)CC[C@H](NC(=O)[C@H](N)Cc1c[nH]c2ccccc12)C(=O)N[C@@H](CC(=O)O)C(=O)N[C@@H](Cc1cc(F)c(F)c(F)c1)C(N)=O` [HT-74, D-Trp-Met(O2)-Asp-Phe(3,4,5-TriF)-NH2], for which the EC50 worked out at 8.42 µM in assay [1] (setting [4]) and 11 µM in assay [2] (setting [5]). In addition, in assay [2], the “Agonistic Activity (%) at 10 μM” value was found to be 55.05%.

As for `CCCC[C@H](NC(=O)[C@H](Cc1c[nH]c2ccccc12)NC(=O)CNC(C)=O)C(=O)N[C@@H](CC(=O)O)C(N)=O` [HT-214, Ac-Gly-Trp-Nle-Asp-NH2] (Ac-GW[Nle]D-NH2), the EC50 in assay [1] (setting [7]) and in assay [2] (setting [3]) was over 10 µM in each case.

With `CCCCC[C@H](NC(=O)[C@@H](Cc1c[nH]c2ccccc12)NC(C)=O)C(=O)N[C@@H](CC(=O)O)C(=O)N[C@@H](Cc1cccc(Br)c1)C(N)=O` [HT-257, Ac-D-Trp-Pa-Asp-Phe(3-Br)-NH2] (Ac-[dW][Ahp(2)]D[Phe(3-Br)]-NH2), the EC50 in assay [1] (in presence of 10 nM CCK8) is 0.132 µM; in assay [2] (setting [6]), 0.00334 µM.

On to `CCCCCC[C@@H](NC(C)=O)C(=O)N[C@@H](CCCC)C(=O)N[C@@H](CCC(=O)O)C(=O)N[C@@H](Cc1cccc(Br)c1)C(N)=O` [HT-263, Ac-Oa-Nle-Glu-Phe(3-Br)-NH2] (Ac-[dAoc(2)][Nle]E[Phe(3-Br)]-NH2), for which the EC50 in assay [1] (setting [7]) was over 10 µM; in assay [2] (setting [6]) it was 64.5 µM.

On to `CCCCCC[C@H](NC(=O)[C@H](Cc1c[nH]c2ccccc12)NC(C)=O)C(=O)N[C@@H](CC(=O)O)C(=O)N[C@@H](Cc1cccc(Br)c1)C(N)=O` [HT-259, Ac-D-Trp-Oa-Asp-Phe(3-Br)-NH2] (Ac-W[Aoc(2)]D[Phe(3-Br)]-NH2), for which the 50% effective concentration (EC50) was determined as 0.0592 µM in assay [1] (in presence of 10 nM CCK8) and 0.00229 µM in assay [2] (setting [6]).

Consider `CCCC[C@H](NC(=O)[C@@H](Cc1c[nH]c2ccccc12)N(C)C(=O)CN(C)C(=O)OCC1c2ccccc2-c2ccccc21)C(=O)N[C@@H](CC(=O)O)C(=O)N[C@@H](Cc1cccc(Br)c1)C(N)=O` [HT-252, Fmoc-(N-Me-Gly)-(N-Me-Trp)-Nle-Asp-Phe(3-Br)-NH2], for which the concentration for a half-maximal effect (EC50) came out at 1.03 µM in assay [1] (in presence of 10 nM CCK8) and 0.255 µM in assay [2] (setting [6]).

As to `CSCC[C@H](NC(=O)[C@@H](Cc1c[nH]c2ccccc12)NC(C)=O)C(=O)N[C@@H](Cc1c[nH]cn1)C(=O)N[C@@H](Cc1cccc(Br)c1)C(N)=O` [HT-189, Ac-D-Trp-Met-His-Phe(3-Br)-NH2] (Ac-[dW]MH[Phe(3-Br)]-NH2), the EC50 in assay [1] (setting [4]) was 5.95 µM; in assay [2] (setting [5]), 1.99 µM.
